# Source: PubChem BioAssay AID248 (DTP/NCI, 2004)
# Values joined by “and” are separate entries in the source; they are usually repeats but may differ in a detail not shown here. Equal entries are not always repeated. Inconclusive results and toxic doses are left out.
# Test system: L1210 leukemia ip in BDF1 mice, survival T/C
# Experiment: NCI In Vivo Anticancer Drug Screen. Data for tumor model L1210 Leukemia (intraperitoneal) in B6D2F1 (BDF1) mice
# Conditions: higher = longer survival
# Outline: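 In this screen, tumor-bearing mice given compound are compared to those given vehicle, and their survival values are reported as a treated-to-control quotient.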
smiles,measurement,setting,value
N#[N+]c1cnc([O-])[nH]c1=O,T/C,"endpoint: mean survival time, dose: 0.31 mg/kg/injection, schedule: Q#A X Z (ip), vehicle: methylcellulose (MC)",103 % of control
same,T/C,"endpoint: mean survival time, dose: 0.6 mg/kg/injection, schedule: Q01DX Z (im), vehicle: saline",102 % of control
same,T/C,"endpoint: mean survival time, dose: 0.6 mg/kg/injection, schedule: Q01DX Z (ip), vehicle: saline",104 % of control
same,T/C,"endpoint: mean survival time, dose: 0.62 mg/kg/injection, schedule: Q#A X Z (ip), vehicle: methylcellulose (MC)",108 % of control
same,T/C,"endpoint: mean survival time, dose: 1.0 mg/kg/injection, schedule: Q01DX009 (ip), vehicle: saline",119 % of control
same,T/C,"endpoint: mean survival time, dose: 1.2 mg/kg/injection, schedule: Q01DX Z (ip), vehicle: saline",120 % of control
same,T/C,"endpoint: mean survival time, dose: 1.75 mg/kg/injection, schedule: Q01DX Z (ip), vehicle: carboxymethylcellulose (CMC)",115 % of control
same,T/C,"endpoint: mean survival time, dose: 2.0 mg/kg/injection, schedule: Q01DX009 (sc), vehicle: carboxymethylcellulose (CMC)",103 % of control
same,T/C,"endpoint: mean survival time, dose: 2.5 mg/kg/injection, schedule: Q01DX006 (iv), vehicle: saline",110 % of control
same,T/C,"endpoint: mean survival time, dose: 2.5 mg/kg/injection, schedule: Q01DX010 (ip), vehicle: saline",107 % of control
same,T/C,"endpoint: mean survival time, dose: 2.5 mg/kg/injection, schedule: Q01DX Z (sc), vehicle: steriod suspending solution",112 % of control
same,T/C,"endpoint: mean survival time, dose: 3.75 mg/kg/injection, schedule: Q03DX Z (ip), vehicle: methylcellulose (MC)",123 % of control
same,T/C,"endpoint: mean survival time, dose: 4.0 mg/kg/injection, schedule: Q01DX001 (sc), vehicle: carboxymethylcellulose (CMC)",100 % of control
same,T/C,"endpoint: mean survival time, dose: 4.0 mg/kg/injection, schedule: Q01DX009 (sc), vehicle: carboxymethylcellulose (CMC)",105 % of control
same,T/C,"endpoint: mean survival time, dose: 4.0 mg/kg/injection, schedule: Q## X008 (ip), vehicle: carboxymethylcellulose (CMC)",120 % of control
same,T/C,"endpoint: mean survival time, dose: 4.0 mg/kg/injection, schedule: Q## X016 (ip), vehicle: carboxymethylcellulose (CMC)",119 % of control
same,T/C,"endpoint: mean survival time, dose: 4.0 mg/kg/injection, schedule: Q## X024 (ip), vehicle: carboxymethylcellulose (CMC)",118 % of control
same,T/C,"endpoint: mean survival time, dose: 5.0 mg/kg/injection, schedule: Q01DX006 (iv), vehicle: saline",115 % of control
same,T/C,"endpoint: mean survival time, dose: 5.0 mg/kg/injection, schedule: Q01DX Z (ip), vehicle: saline",113 % of control and 118 % of control
same,T/C,"endpoint: mean survival time, dose: 5.0 mg/kg/injection, schedule: Q04DX003 (ip), vehicle: Klucel (hydroxypropylcellulose) (HPC)",124 % of control
same,T/C,"endpoint: mean survival time, dose: 5.0 mg/kg/injection, schedule: Q04DX003 (ip), vehicle: saline",104 % of control and 123 % of control
same,T/C,"endpoint: mean survival time, dose: 8.0 mg/kg/injection, schedule: Q01DX001 (sc), vehicle: carboxymethylcellulose (CMC)",103 % of control
same,T/C,"endpoint: mean survival time, dose: 8.0 mg/kg/injection, schedule: Q01DX009 (ip), vehicle: carboxymethylcellulose (CMC)",165 % of control
same,T/C,"endpoint: mean survival time, dose: 8.0 mg/kg/injection, schedule: Q01DX009 (ip), vehicle: saline",121 % of control
same,T/C,"endpoint: mean survival time, dose: 8.0 mg/kg/injection, schedule: Q01DX009 (sc), vehicle: carboxymethylcellulose (CMC)",107 % of control
same,T/C,"endpoint: mean survival time, dose: 8.0 mg/kg/injection, schedule: Q## X016 (ip), vehicle: carboxymethylcellulose (CMC)",120 % of control
same,T/C,"endpoint: mean survival time, dose: 8.0 mg/kg/injection, schedule: Q## X024 (ip), vehicle: carboxymethylcellulose (CMC)",120 % of control
same,T/C,"endpoint: mean survival time, dose: 8.75 mg/kg/injection, schedule: Q07DX Z (ip), vehicle: methylcellulose (MC)",112 % of control
same,T/C,"endpoint: mean survival time, dose: 9.49 mg/kg/injection, schedule: Q01DX Z (oral), vehicle: carboxymethylcellulose (CMC)",98 % of control
same,T/C,"endpoint: mean survival time, dose: 10.0 mg/kg/injection, schedule: Q01DX005 (ip), vehicle: Klucel (hydroxypropylcellulose) (HPC)",157 % of control
same,T/C,"endpoint: mean survival time, dose: 10.0 mg/kg/injection, schedule: Q01DX006 (iv), vehicle: saline",106 % of control and 108 % of control
same,T/C,"endpoint: mean survival time, dose: 10.0 mg/kg/injection, schedule: Q01DX010 (ip), vehicle: saline",155 % of control
same,T/C,"endpoint: mean survival time, dose: 10.0 mg/kg/injection, schedule: Q01DX Z (im), vehicle: saline",118 % of control
same,T/C,"endpoint: mean survival time, dose: 10.0 mg/kg/injection, schedule: Q01DX Z (oral), vehicle: saline",106 % of control
same,T/C,"endpoint: mean survival time, dose: 10.0 mg/kg/injection, schedule: Q04DX003 (ip), vehicle: Klucel (hydroxypropylcellulose) (HPC)",124 % of control
same,T/C,"endpoint: mean survival time, dose: 10.0 mg/kg/injection, schedule: Q04DX003 (ip), vehicle: saline",114 % of control
same,T/C,"endpoint: mean survival time, dose: 14.2 mg/kg/injection, schedule: Q01DX Z (oral), vehicle: carboxymethylcellulose (CMC)",101 % of control
same,T/C,"endpoint: mean survival time, dose: 15.0 mg/kg/injection, schedule: Q01DX001 (ip), vehicle: saline",122 % of control and 91 % of control
same,T/C,"endpoint: mean survival time, dose: 15.0 mg/kg/injection, schedule: Q03DX Z (ip), vehicle: methylcellulose (MC)",152 % of control
same,T/C,"endpoint: mean survival time, dose: 16.0 mg/kg/injection, schedule: Q01DX001 (sc), vehicle: carboxymethylcellulose (CMC)",101 % of control
same,T/C,"endpoint: mean survival time, dose: 16.0 mg/kg/injection, schedule: Q01DX009 (sc), vehicle: carboxymethylcellulose (CMC)",124 % of control
same,T/C,"endpoint: mean survival time, dose: 16.0 mg/kg/injection, schedule: Q## X024 (ip), vehicle: carboxymethylcellulose (CMC)",115 % of control
same,T/C,"endpoint: mean survival time, dose: 17.5 mg/kg/injection, schedule: Q07DX Z (ip), vehicle: methylcellulose (MC)",124 % of control
same,T/C,"endpoint: mean survival time, dose: 20.0 mg/kg/injection, schedule: Q01DX006 (iv), vehicle: saline",102 % of control and 120 % of control
same,T/C,"endpoint: mean survival time, dose: 20.0 mg/kg/injection, schedule: Q01DX Z (oral), vehicle: saline",115 % of control
same,T/C,"endpoint: mean survival time, dose: 20.0 mg/kg/injection, schedule: Q04DX003 (ip), vehicle: saline",116 % of control and 119 % of control
same,T/C,"endpoint: mean survival time, dose: 21.3 mg/kg/injection, schedule: Q01DX Z (oral), vehicle: carboxymethylcellulose (CMC)",97 % of control
same,T/C,"endpoint: mean survival time, dose: 29.0 mg/kg/injection, schedule: Q01DX001 (ip), vehicle: alkali diluted with saline",153 % of control
same,T/C,"endpoint: mean survival time, dose: 32.0 mg/kg/injection, schedule: Q01DX Z (oral), vehicle: carboxymethylcellulose (CMC)",104 % of control
same,T/C,"endpoint: mean survival time, dose: 32.0 mg/kg/injection, schedule: Q01DX Z (oral), vehicle: methylcellulose (MC)",95 % of control
same,T/C,"endpoint: mean survival time, dose: 40.0 mg/kg/injection, schedule: Q01DX006 (iv), vehicle: saline",113 % of control
same,T/C,"endpoint: mean survival time, dose: 40.0 mg/kg/injection, schedule: Q01DX009 (oral), vehicle: carboxymethylcellulose (CMC)",104 % of control
same,T/C,"endpoint: mean survival time, dose: 40.0 mg/kg/injection, schedule: Q01DX Z (oral), vehicle: saline",107 % of control and 116 % of control
same,T/C,"endpoint: mean survival time, dose: 80.0 mg/kg/injection, schedule: Q01DX009 (oral), vehicle: carboxymethylcellulose (CMC)",109 % of control
same,T/C,"endpoint: mean survival time, dose: 80.0 mg/kg/injection, schedule: Q01DX Z (oral), vehicle: saline",106 % of control
same,T/C,"endpoint: mean survival time, dose: 160.0 mg/kg/injection, schedule: Q01DX001 (oral), vehicle: carboxymethylcellulose (CMC)",104 % of control
same,T/C,"endpoint: mean survival time, dose: 240.0 mg/kg/injection, schedule: Q01DX001 (oral), vehicle: carboxymethylcellulose (CMC)",102 % of control
same,T/C,"endpoint: median survival time, dose: 5.0 mg/kg/injection, schedule: Q01DX009 (ip), vehicle: saline",164 % of control
same,T/C,"endpoint: median survival time, dose: 10.0 mg/kg/injection, schedule: Q01DX009 (ip), vehicle: saline",172 % of control and 200 % of control
CCCCn1c(C)nc2c(N)cc(C(F)(F)F)cc21,T/C,"endpoint: mean survival time, dose: 200.0 mg/kg/injection, schedule: Q01DX001 (ip), vehicle: Klucel (hydroxypropylcellulose) (HPC)",100 % of control
same,T/C,"endpoint: mean survival time, dose: 400.0 mg/kg/injection, schedule: Q01DX001 (ip), vehicle: Klucel (hydroxypropylcellulose) (HPC)",111 % of control
Clc1ccccc1OB(Oc1ccccc1Cl)Oc1ccccc1Cl,T/C,"endpoint: mean survival time, dose: 100.0 mg/kg/injection, schedule: Q01DX001 (ip), vehicle: saline",101 % of control
same,T/C,"endpoint: mean survival time, dose: 200.0 mg/kg/injection, schedule: Q01DX001 (ip), vehicle: saline",95 % of control
O=C1NC(=O)C(c2ccc(C(F)(F)F)cc2)(c2ccc(C(F)(F)F)cc2)N1,T/C,"endpoint: mean survival time, dose: 100.0 mg/kg/injection, schedule: Q01DX009 (ip), vehicle: saline with Tween-80",98 % of control
same,T/C,"endpoint: mean survival time, dose: 100.0 mg/kg/injection, schedule: Q04DX003 (ip), vehicle: saline with Tween-80",92 % of control
same,T/C,"endpoint: mean survival time, dose: 200.0 mg/kg/injection, schedule: Q01DX009 (ip), vehicle: saline with Tween-80",90 % of control
same,T/C,"endpoint: mean survival time, dose: 200.0 mg/kg/injection, schedule: Q04DX003 (ip), vehicle: saline with Tween-80",96 % of control
same,T/C,"endpoint: mean survival time, dose: 400.0 mg/kg/injection, schedule: Q01DX009 (ip), vehicle: saline with Tween-80",86 % of control
same,T/C,"endpoint: mean survival time, dose: 400.0 mg/kg/injection, schedule: Q04DX003 (ip), vehicle: saline with Tween-80",89 % of control
N#Cc1ccc2c(c1)Nc1ccccc1S2,T/C,"endpoint: mean survival time, dose: 100.0 mg/kg/injection, schedule: Q01DX009 (ip), vehicle: Klucel (hydroxypropylcellulose) (HPC)",101 % of control
same,T/C,"endpoint: mean survival time, dose: 100.0 mg/kg/injection, schedule: Q04DX003 (ip), vehicle: Klucel (hydroxypropylcellulose) (HPC)",103 % of control
same,T/C,"endpoint: mean survival time, dose: 200.0 mg/kg/injection, schedule: Q01DX009 (ip), vehicle: Klucel (hydroxypropylcellulose) (HPC)",99 % of control
same,T/C,"endpoint: mean survival time, dose: 200.0 mg/kg/injection, schedule: Q04DX003 (ip), vehicle: Klucel (hydroxypropylcellulose) (HPC)",92 % of control
same,T/C,"endpoint: mean survival time, dose: 400.0 mg/kg/injection, schedule: Q01DX009 (ip), vehicle: Klucel (hydroxypropylcellulose) (HPC)",89 % of control
same,T/C,"endpoint: mean survival time, dose: 400.0 mg/kg/injection, schedule: Q04DX003 (ip), vehicle: Klucel (hydroxypropylcellulose) (HPC)",105 % of control
CCCCCCCCCCCCCCCCC(=O)O.[Pb],T/C,"endpoint: mean survival time, dose: 75.0 mg/kg/injection, schedule: Q01DX001 (ip), vehicle: other",94 % of control
same,T/C,"endpoint: mean survival time, dose: 150.0 mg/kg/injection, schedule: Q01DX001 (ip), vehicle: other",92 % of control
same,T/C,"endpoint: mean survival time, dose: 300.0 mg/kg/injection, schedule: Q01DX001 (ip), vehicle: other",92 % of control
